Laboratory results published in PubChem BioAssay (NCI).
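A five-concentration, 48-hour dose response in 96-well plates underlies each endpoint, interpolated linearly between surrounding concentrations. Abbreviation: GI50, concentration required for 50% inhibition of growth. TGI: concentration producing complete growth inhibition.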

Columns and labels:
Experiment in all cases: DTP human tumour cell line panel, 48 h
[1] = tested on: HOP-18 NSCLC
[2] = tested on: COLO 205 colon
[3] = tested on: MCF7 breast
[4] = tested on: RPMI-8226 leukemia
[5] = tested on: DMS 114 small cell lung
[6] = tested on: DLD-1 colon
[7] = tested on: DMS 273 small cell lung
[8] = tested on: M19-MEL melanoma
[9] = tested on: NCI-H522 lung
[10] = tested on: SNB-78 CNS
[11] = tested on: HS 578T breast
[12] = tested on: CAKI-1 renal
[13] = tested on: TK-10 renal

Compound: CC(=O)Nc1ccc(/C=C/c2ccc(NC(=O)Nc3ccc(/C=C/c4ccc(NC(C)=O)cc4S(=O)(=O)O)c(S(=O)(=O)O)c3)cc2S(=O)(=O)O)c(S(=O)(=O)O)c1
- TGI [1]: > 100 µM
- TGI [2]: > 100 µM
- TGI [3]: > 100 µM
- TGI [4]: > 100 µM
- TGI [5]: > 100 µM
- TGI [6]: > 100 µM
- TGI [7]: > 100 µM
- TGI [8]: > 100 µM
- TGI [9]: > 100 µM
- TGI [10]: > 100 µM

Compound: COCc1nc2c(OC)c(-c3nc4nc(N5CCN(C)CC5)ccc4[nH]3)cc(OC)c2n1C
- TGI [2]: 21.5 µM
- TGI [4]: 59.1 µM
- TGI [11]: > 100 µM
- TGI [9]: 86.4 µM
- TGI [12]: > 100 µM

Compound: CC1CC2=C(S(=O)(=O)c3ccccc3)CC(S(=O)(=O)c3ccccc3)(S(=O)(=O)c3ccccc3)CC21 (stereo not given)
- TGI [13]: > 100 µM
- TGI [1]: > 100 µM
- TGI [2]: > 100 µM
- TGI [4]: > 100 µM
- TGI [5]: > 100 µM
- TGI [6]: > 100 µM
- TGI [7]: > 100 µM

Compound: COCCCNc1nc(N)c(C#N)c(C#N)c1C#N
- TGI [13]: > 10 µM
- TGI [2]: > 10 µM
- TGI [3]: > 10 µM
- TGI [4]: > 10 µM
- TGI [11]: > 10 µM
- TGI [9]: > 10 µM
- TGI [12]: > 10 µM

Compound: CCOC(=O)c1ccc(N[C@@H]2c3cc4c(cc3C(c3cc(OC)c(O)c(OC)c3)[C@H]3C(=O)OCC32)OCO4)cc1O (stereo not given in full)
- TGI [1]: > 54.4 µM
- TGI [2]: 7.69 µM
- TGI [3]: > 79.3 µM
- TGI [4]: 4.77 µM
- TGI [5]: 2.03 µM
- TGI [6]: 4.58 µM
- TGI [7]: 1.77 µM
- TGI [8]: > 55.1 µM
- TGI [9]: 2.07 µM
- TGI [12]: 3.26 µM
- TGI [10]: > 100 µM

Compound: CC1CCCCNC1=S (stereo not given)
- TGI [13]: > 10 µM
- TGI [3]: > 10 µM
- TGI [11]: > 10 µM

Compound: COc1cc2oc(-c3ccc(O)cc3)c(OC)c(=O)c2c(O)c1OC
- GI50 [13]: 62.4 µM
- TGI [13]: > 100 µM
- GI50 [2]: 32.1 µM
- TGI [2]: > 100 µM
- GI50 [3]: 51.4 µM
- TGI [3]: > 100 µM
- GI50 [9]: 45.2 µM
- TGI [9]: > 100 µM
- GI50 [12]: 45.1 µM
- TGI [12]: > 100 µM

Compound: CCOC(=O)CNC(=O)N(CC)C12CC3CC(CC(C3)C1)C2
- TGI [1]: 536 µM
- TGI [2]: 227 µM
- TGI [3]: 444 µM
- TGI [4]: 316 µM
- TGI [5]: 274 µM
- TGI [6]: 44.9 µM
- TGI [7]: 315 µM
- TGI [8]: 380 µM
- TGI [9]: 323 µM
- TGI [12]: 313 µM
- TGI [10]: 474 µM

Compound: COc1ccccc1CNCCCN1C(=O)c2ccc3c4c(ccc(c24)C1=O)C(=O)N(CCCNCCNCCCN)C3=O
- GI50 [13]: 6.65 µM
- TGI [13]: 44.7 µM
- GI50 [3]: 0.422 µM
- TGI [3]: 2.22 µM
- GI50 [4]: 10.9 µM
- TGI [4]: > 100 µM
- GI50 [11]: 5.51 µM
- TGI [11]: 42.9 µM
- GI50 [9]: 1.22 µM
- TGI [9]: 3.71 µM
- GI50 [12]: 21.7 µM
- TGI [12]: > 100 µM

Compound: CCOC(=O)Cn1c(=O)ccn(COCCO)c1=O
- TGI [13]: > 100 µM
- TGI [2]: > 100 µM
- TGI [3]: > 100 µM
- TGI [4]: > 100 µM
- TGI [11]: > 100 µM
- TGI [9]: > 100 µM
- TGI [12]: > 100 µM

Compound: COc1ccc(S(=O)(=O)c2ccccc2[N+](=O)[O-])cc1
- TGI [13]: > 100 µM
- TGI [1]: > 100 µM
- TGI [2]: > 100 µM
- TGI [4]: > 100 µM
- TGI [5]: > 100 µM
- TGI [6]: > 100 µM
- TGI [7]: > 100 µM
- TGI [8]: > 100 µM

Compound: C/C(=N/NC(N)=S)c1ccc[nH]1
- TGI [13]: > 100 µM
- TGI [2]: > 100 µM
- TGI [3]: > 100 µM
- TGI [4]: > 100 µM
- TGI [11]: > 100 µM
- TGI [9]: > 100 µM
- TGI [12]: > 100 µM

Compound: CCC(=O)Oc1ccc2c(c1)c(=O)c1c(NCCCN(C)C)ccc3nnn2c31
- TGI [13]: 15.5 µM
- TGI [2]: 13.7 µM
- TGI [3]: 12.7 µM
- TGI [4]: 7.16 µM
- TGI [11]: 21.6 µM
- TGI [9]: 9.06 µM
- TGI [12]: 14.3 µM
